Data taken from ChEMBL document CHEMBL1201862, “PubChem BioAssay data set” (2004).
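Interpolation was linear, between the two tested concentrations surrounding the appropriate level; five concentrations were tested over 48 hours in 96-well plates. Abbreviation: GI50, concentration required for 50% inhibition of growth.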 Activity calls are given as the source filed them. No stated cut-off is given here; in the data, active = GI50 up to about 1.1 µM and inactive = higher.

What was measured:
Assay in all cases: growth of human tumour cells (NCI), 48 h
[1] = system: HL-60
[2] = system: NCI-H226
[3] = system: MCF7
[4] = system: Hs-578T
[5] = system: A498
[6] = system: DU-145
[7] = system: OVCAR-8
[8] = system: NCI-H23
[9] = system: SK-MEL-2
[10] = system: COLO 205
[11] = system: MOLT-4
[12] = system: M14
[13] = system: NCI/ADR-RES
[14] = system: BT-549
[15] = system: SW-620
[16] = system: OVCAR-5
[17] = system: U-251
[18] = system: CAKI-1
[19] = system: NCI-H522

| Structure (SMILES) | GI50 [1] | GI50 [2] | GI50 [3] | GI50 [4] | GI50 [5] | GI50 [6] | GI50 [7] | GI50 [8] | GI50 [9] | GI50 [10] | GI50 [11] | GI50 [12] | GI50 [13] | GI50 [14] | GI50 [15] | GI50 [16] | GI50 [17] | GI50 [18] | GI50 [19] |
| --- | --- | --- | --- | --- | --- | --- | --- | --- | --- | --- | --- | --- | --- | --- | --- | --- | --- | --- | --- |
| O=C(CN1c2ccccc2Sc2ccccc21)n1cnc2ccccc21 | 89.3 µM (inactive) | 45 µM (inactive) | > 100 µM (inactive) | > 100 µM (inactive) | 45.3 µM (inactive) | > 100 µM (inactive) | 72.6 µM (inactive) | 77.3 µM (inactive) | > 100 µM (inactive) | 92.3 µM (inactive) | 51.4 µM (inactive) | 59.2 µM (inactive) | 97.5 µM (inactive) | > 100 µM (inactive) | > 100 µM (inactive) | 80 µM (inactive) | 43.5 µM (inactive) | – | – |
| Cc1cc(Cl)ccc1NC(=O)/C(CC(=O)CC(c1ccccc1)c1c(O)c2ccccc2oc1=O)=N\O (stereo not given) | > 100 µM (inactive) | > 100 µM (inactive) | > 100 µM (inactive) | > 100 µM (inactive) | – | > 100 µM (inactive) | > 100 µM (inactive) | > 100 µM (inactive) | > 100 µM (inactive) | > 100 µM (inactive) | > 100 µM (inactive) | > 100 µM (inactive) | > 100 µM (inactive) | > 100 µM (inactive) | > 100 µM (inactive) | > 100 µM (inactive) | > 100 µM (inactive) | > 100 µM (inactive) | > 100 µM (inactive) |
| CCOP(=O)(OCC)/C(C#N)=C/c1cccn1C | – | > 100 µM (inactive) | > 100 µM (inactive) | > 100 µM (inactive) | > 100 µM (inactive) | > 100 µM (inactive) | > 100 µM (inactive) | > 100 µM (inactive) | > 100 µM (inactive) | > 100 µM (inactive) | > 100 µM (inactive) | > 100 µM (inactive) | > 100 µM (inactive) | > 100 µM (inactive) | > 100 µM (inactive) | > 100 µM (inactive) | > 100 µM (inactive) | > 100 µM (inactive) | > 100 µM (inactive) |
| C/C(=N\c1cc(Cl)cc(Cl)c1)c1ccncc1 | – | > 100 µM (inactive) | > 100 µM (inactive) | > 100 µM (inactive) | > 100 µM (inactive) | > 100 µM (inactive) | > 100 µM (inactive) | > 100 µM (inactive) | > 100 µM (inactive) | > 100 µM (inactive) | > 100 µM (inactive) | > 100 µM (inactive) | > 100 µM (inactive) | > 100 µM (inactive) | > 100 µM (inactive) | > 100 µM (inactive) | > 100 µM (inactive) | > 100 µM (inactive) | > 100 µM (inactive) |
| Cc1ccc(N(C)S(=O)(=O)c2ccccc2)cc1 | > 10 µM (inactive) | > 100 µM (inactive) | > 100 µM (inactive) | > 100 µM (inactive) | – | > 100 µM (inactive) | > 100 µM (inactive) | 95.5 µM (inactive) | > 100 µM (inactive) | > 100 µM (inactive) | 19 µM (inactive) | > 100 µM (inactive) | > 100 µM (inactive) | 61 µM (inactive) | > 100 µM (inactive) | > 100 µM (inactive) | > 100 µM (inactive) | > 100 µM (inactive) | > 100 µM (inactive) |
| COC(=O)c1ccc(C)cc1/C=C1\Cc2ccc(C)cc2C1=O | 4.78 µM (inactive) | 10.1 µM (inactive) | 11.2 µM (inactive) | 23.1 µM (inactive) | 19.1 µM (inactive) | 16.7 µM (inactive) | 21.2 µM (inactive) | 23.9 µM (inactive) | – | 8.63 µM (inactive) | 13.2 µM (inactive) | 16.1 µM (inactive) | 29.4 µM (inactive) | 4.91 µM (inactive) | 19.5 µM (inactive) | 15.9 µM (inactive) | 12.6 µM (inactive) | 26.3 µM (inactive) | 17.1 µM (inactive) |
| CS(=O)(=O)CCC(N)P(=O)(O)O (stereo not given) | > 100 µM (inactive) | > 100 µM (inactive) | > 100 µM (inactive) | > 100 µM (inactive) | – | > 100 µM (inactive) | > 100 µM (inactive) | > 100 µM (inactive) | > 100 µM (inactive) | > 100 µM (inactive) | > 100 µM (inactive) | > 100 µM (inactive) | > 100 µM (inactive) | > 100 µM (inactive) | > 100 µM (inactive) | > 100 µM (inactive) | > 100 µM (inactive) | > 100 µM (inactive) | > 100 µM (inactive) |
| Cc1ccc(Cc2n[nH]c(=O)[nH]2)cc1 | > 100 µM (inactive) | > 100 µM (inactive) | 28.6 µM (inactive) | > 100 µM (inactive) | > 100 µM (inactive) | > 100 µM (inactive) | > 100 µM (inactive) | > 100 µM (inactive) | > 100 µM (inactive) | > 100 µM (inactive) | > 100 µM (inactive) | > 100 µM (inactive) | > 100 µM (inactive) | > 100 µM (inactive) | > 100 µM (inactive) | > 100 µM (inactive) | > 100 µM (inactive) | > 100 µM (inactive) | – |
| Cc1ccc(C2(c3ccc(Cl)cc3)c3ccccc3C3=NCCN32)cc1 (stereo not given) | 6.79 µM (inactive) | 16.3 µM (inactive) | 1.44 µM (inactive) | 14.2 µM (inactive) | 4.92 µM (inactive) | 13.2 µM (inactive) | 14.5 µM (inactive) | 14.3 µM (inactive) | 12.2 µM (inactive) | 4.6 µM (inactive) | 3.66 µM (inactive) | 3.7 µM (inactive) | 10 µM (inactive) | 12.6 µM (inactive) | 10.8 µM (inactive) | 12.5 µM (inactive) | 11.5 µM (inactive) | 21.5 µM (inactive) | – |
| O=c1cc(CNC2CCCC2)[nH]c(=O)[nH]1 | > 100 µM (inactive) | – | > 100 µM (inactive) | > 100 µM (inactive) | > 100 µM (inactive) | > 100 µM (inactive) | > 100 µM (inactive) | > 100 µM (inactive) | > 100 µM (inactive) | > 100 µM (inactive) | > 100 µM (inactive) | > 100 µM (inactive) | > 100 µM (inactive) | > 100 µM (inactive) | > 100 µM (inactive) | > 100 µM (inactive) | > 100 µM (inactive) | > 100 µM (inactive) | > 100 µM (inactive) |
| C/C1=C/C(=O)O[C@@H]2C[C@@H](CC[C@H](C)/C=C\C=C\CC1)O[C@@](O)([C@@H]1CSC(=O)N1)C2 [LATRUNCULIN A] | 3.28 µM (inactive) | 0.272 µM (active) | 1.28 µM (inactive) | 0.114 µM (active) | 0.111 µM (active) | 2.77 µM (inactive) | 1.41 µM (inactive) | 2.14 µM (inactive) | 5.25 µM (inactive) | 0.18 µM (active) | > 5.83 µM (inactive) | 0.565 µM (active) | 3.01 µM (inactive) | 0.305 µM (active) | – | 0.484 µM (active) | > 10 µM (inactive) | 0.0741 µM (active) | – |
| CO/N=C(\C)c1cccc(Nc2nc3ccccc3c3occc23)c1 | 27.7 µM (inactive) | 1.56 µM (inactive) | 18.1 µM (inactive) | 10.9 µM (inactive) | 3.61 µM (inactive) | 15.8 µM (inactive) | 17.1 µM (inactive) | – | – | 12.1 µM (inactive) | 11.2 µM (inactive) | 16.7 µM (inactive) | 14.4 µM (inactive) | 13.5 µM (inactive) | – | 13.8 µM (inactive) | 15.9 µM (inactive) | 10.8 µM (inactive) | – |
| O=C(Nc1nc(C23CC4CC(CC(C4)C2)C3)cs1)c1cc2cc([N+](=O)[O-])ccc2oc1=O | > 100 µM (inactive) | > 100 µM (inactive) | 56.8 µM (inactive) | 20.3 µM (inactive) | 36.3 µM (inactive) | 86.7 µM (inactive) | > 100 µM (inactive) | 77.1 µM (inactive) | – | 41 µM (inactive) | 57.8 µM (inactive) | – | 35.7 µM (inactive) | 14.3 µM (inactive) | 33.6 µM (inactive) | > 100 µM (inactive) | 43 µM (inactive) | > 100 µM (inactive) | > 100 µM (inactive) |
| O=C1CC(C(O)CO)CC(=O)N1 (stereo not given) | > 100 µM (inactive) | > 100 µM (inactive) | > 100 µM (inactive) | > 100 µM (inactive) | > 100 µM (inactive) | > 100 µM (inactive) | > 100 µM (inactive) | > 100 µM (inactive) | – | – | > 10 µM (inactive) | > 100 µM (inactive) | > 100 µM (inactive) | > 100 µM (inactive) | > 100 µM (inactive) | > 100 µM (inactive) | > 100 µM (inactive) | > 100 µM (inactive) | > 100 µM (inactive) |
| O=P1(Cc2ccccc2)N(Cc2ccccc2)[C@@H]2CCCC[C@H]2N1Cc1ccccc1 | 4.67 µM (inactive) | 2.2 µM (inactive) | 6.89 µM (inactive) | 10.7 µM (inactive) | – | 12.6 µM (inactive) | 10 µM (inactive) | 9.98 µM (inactive) | 11.2 µM (inactive) | 5.77 µM (inactive) | 2.72 µM (inactive) | 4.34 µM (inactive) | 5.85 µM (inactive) | 17.7 µM (inactive) | 10.1 µM (inactive) | 11.6 µM (inactive) | 11.1 µM (inactive) | 10.4 µM (inactive) | 3.97 µM (inactive) |
| Cc1cc2c(c(C(=O)NCCC(=O)O)c1)Oc1c(cc(C)cc1C(=O)NCCC(=O)O)S2 | – | > 100 µM (inactive) | > 100 µM (inactive) | > 100 µM (inactive) | – | > 100 µM (inactive) | > 100 µM (inactive) | > 100 µM (inactive) | > 100 µM (inactive) | > 100 µM (inactive) | > 100 µM (inactive) | > 100 µM (inactive) | > 100 µM (inactive) | > 100 µM (inactive) | > 100 µM (inactive) | > 100 µM (inactive) | > 100 µM (inactive) | > 100 µM (inactive) | > 100 µM (inactive) |
